In patent publication US8318146B1, “Ascarosides as nematode sex pheromones” (The United States of America, as represented by the …, priority 2008, dated 2012):

Columns and labels:
[1] = tested on: adult male Caenorhabditis elegans; test: Caenorhabditis mating assay (male attraction, time spent in scoring region); type: in vivo; conditions: for activity in the attraction assay: 0 to 10000 fmol range; for male attraction activity, each ascaroside tested individually at physiological concentrations: 0 to 10 fmol for ascr#3, 0 to 100 fmol for ascr#2; for male attraction when assayed individually: 10 fmol ascr#3, 100 fmol ascr#2; for shape of dose-response curve: 0.1 fmol to 10,000 fmol (FIG. 4); for male attraction activity at higher concentrations: above the physiological range
Protocol: Wild-type C. elegans var. N2 Bristol and males from the CB1490 him-5(e1490) mutant were utilized in bioassays. The him-5(e1490) mutant segregates XO male progeny by X chromosome nondisjunction during meiosis. All strains were maintained at 20° C. unless detailed otherwise.
Standard nematode growth medium plates (5 cm diameter) were used for assaying biological activity of the nematode conditioned water. The assay plates comprised of a thin lawn of an overnight grown E. coli OP50 culture with an approximate 0.25 cm gap between the bacterial lawn and the edge of the plate to prevent the nematodes from escaping. Plates were stored at room temperature (20° C.) for two days before being used in trials. Two spots (5 mm in diameter) were spotted 1.6 cm apart from each other on a template and stuck to the bottom of the assay plate. 0.8 μl of the control and the nematode metabolite were placed in the two circles and allowed to dry for approximately 30 seconds. To remove any bias, control and conditioned water spots were interchanged after every trial. Males and hermaphrodites were harvested daily at the fourth larval stage (L4) and stored at 20° C. overnight with 50-60 nematodes of the same sex per plate to be used as young adults the following day. Five nematodes were placed at approximately 1.0 cm away on each side (10 nematodes total) from the spots and allowed to acclimatize for 5 minutes. Trials were videotaped at 30 frames per second for 15 minutes using the Fire-i Unibrain software. For each sample, a minimum of 4-5 trials were conducted each day and each stage was tested on at least three different days.
Each time a nematode entered and left the scoring region it was scored as a nematode event. The time the nematode entered the scoring region and left the scoring region was recorded. Once inside the scoring region, the average time spent by each nematode was noted and the average time spent by the different nematode in the scoring region during the 15 minute interval (control and the conditioned water) were calculated.

[2] = Stability of ascr#2 and ascr#3 in agar plates (LC-MS); type: physicochemical; conditions: agar plates with 200 nM stored at room temperature for three months; extract in 1 ml methanol
Protocol: Agar plates (total volume: 20 ml) prepared from Nobel agar and S-media containing ascr#2 and ascr#3 at a concentration of 200 nM were stored at room temperature for three months and subsequently lyophilized. The residue was powdered using a mortar and extracted with ethanol. The extract was evaporated to dryness, redissolved in 1 ml of methanol, and analyzed via LC-MS, using an Agilent 1100 HPLC system equipped with a 10×250 mm Supelco 5μ ODS preparative column eluted at a flow rate of 3.4 ml/min, and a Micromass Quattro II triple-quadrupole mass spectrometer operated in positive-electrospray ionization mode. A solvent gradient was used starting with a solvent composition of 5% methanol and 95% water, which was maintained for three minutes and then progressed linearly to 100% methanol by 40 minutes, resulting in retention times of 21.3 min (ascr#3) and 25.6 min (ascr#2).

Male C. elegans = test: Reversal frequency of males on ascaroside agar plates (automated nematode tracker); type: in vivo, Caenorhabditis elegans
Protocol: Given the nature of the attraction assay, the exact concentration of the compounds tested in the scoring region is not well defined. […] A system used to track the sinusoidal movement of nematodes is disclosed in Cronin et al., 2005. BMC Genet. 6:5 and incorporated herein by reference.
For the tracker assays, standard nematode growth medium was prepared and added the different ascarosides to the required concentrations into the agar. Plates containing the ascarosides were then allowed to cool and stored at 20° C. overnight. Control plates were treated the same way except that instead of the ascaroside, an equivalent quantity of 100% ethanol was added to the agar. Assay plates were seeded with a thin lawn of an overnight grown E. coli OP50 culture and allowed to dry overnight. 10-15 L4 males were picked 14-16 hours before the experiment on E. coli OP50 seeded plates. For each assay, individual males were picked and placed on assay plates. After 5 minutes, males were assayed for 15 min using the automated tracker to get the different locomotion parameters. For each concentration of ascaroside, an equal number of males were tested on control plates. After the recordings, nematodes were processed using automated tracker software and the results were analyzed using in-house matlab scripts.

| Compound | activity in the attraction assay ([1]; single ascaroside) | male attraction activity, each ascaroside tested individually at physiological concentrations ([1]; FIG. 4) | male attraction when assayed individually [1] | shape of dose-response curve ([1]; single ascaroside) | male attraction activity at higher concentrations ([1]; single ascaroside) | rank of male attraction response among single ascarosides ([1]; single ascaroside, FIG. 4) | time spent in spotted region relative to control region (maximum) ([1]; single ascaroside, FIG. 4) | concentration in the agar extract [2] | lowest concentration that increases reversal frequency (Male C. elegans; ascaroside in agar, FIG. 6A) | male attractant concentration lower than required for dauer induction (Male C. elegans; comparison with dauer induction) | increase of reversal frequency (Male C. elegans; ascaroside in agar, FIG. 6B) |
| --- | --- | --- | --- | --- | --- | --- | --- | --- | --- | --- | --- |
| CC(=O)CC[C@@H](C)O[C@@H]1O[C@@H](C)[C@H](O)C[C@H]1O[C@@H]1O[C@H](CO)[C@@H](O)[C@H](O)[C@H]1O [ASCR #4, 5R-(3′-O-[β-D-glucosyl]-tetrahydro-3′R,5′R-dihydroxy-6′S-methyl-2H-pyran-2′R-yloxy)-2-hexanone] | not active |  |  |  |  |  |  |  |  |  |  |
| C[C@H](CCCC/C=C/C(=O)O)O[C@@H]1O[C@@H](C)[C@H](O)C[C@H]1O [ASCR #3, 8R-(Tetrahydro-3′R,5′R-dihydroxy-6′S-methyl-2H-pyran-2′R-yloxy)-2E-nonenoic acid] |  | not active | did not elicit significant male attraction | strongly biphasic activity profile | active | strongest response | approximately 6.6 fold | 3.2 µM | 1 pM | more than 10.000 fold |  |
| CC(=O)CC[C@@H](C)O[C@@H]1O[C@@H](C)[C@H](O)C[C@H]1O [ASCR #2, 5R-(Tetrahydro-3′R,5′R-dihydroxy-6′S-methyl-2H-pyran-2′R-yloxy)-2-hexanone] |  | not active | did not elicit significant male attraction | strongly biphasic activity profile | active |  | ~2.8 fold | 3.5 µM |  |  | only weak increases |
| C[C@H](CCCCC(=O)O)O[C@@H]1O[C@@H](C)[C@H](O)C[C@H]1O [ASCR #1, 6R-(Tetrahydro-3′R,5′R-dihydroxy-6′S-methyl-2H-pyran-2′R-yloxy)-heptanoic acid] | not active |  |  |  |  |  |  |  |  |  |  |
